Test results taken from patent publication US9458095B2, “Oligo-benzamide compounds and their use in treating cancers” (The Board of Regents of the University of Texas System, priority 2011, dated 2016).
Entries after “also recorded” stand apart in the source; their conditions may differ.

What was measured:
Assay type in all cases: cell-based
ARΔ1 = target: T1, ARΔ1 (Homo sapiens, UniProt P10275); assay: ARE-luciferase reporter in PC-3 cells expressing ARΔ1; details: 100 nM peptidomimetic, 48 h
T1 construct: expressed in transfected cells; host or cells: PC-3 cells
T1 sequence (P10275 540-920 limits assumed): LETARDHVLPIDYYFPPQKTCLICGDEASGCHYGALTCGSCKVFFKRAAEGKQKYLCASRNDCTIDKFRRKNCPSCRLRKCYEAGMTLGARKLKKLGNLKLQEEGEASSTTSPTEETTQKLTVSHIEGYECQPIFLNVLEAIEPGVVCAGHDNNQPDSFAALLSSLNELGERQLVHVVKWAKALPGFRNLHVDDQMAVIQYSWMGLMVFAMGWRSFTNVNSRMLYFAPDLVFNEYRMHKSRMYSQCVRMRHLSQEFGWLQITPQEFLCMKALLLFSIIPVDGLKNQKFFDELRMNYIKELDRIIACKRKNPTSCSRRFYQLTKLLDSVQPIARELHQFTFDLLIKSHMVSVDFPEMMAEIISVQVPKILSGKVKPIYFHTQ
Experimental: (§1) FIGS. 2A-D. Oligobenzamide control of PC3 cell proliferation. (FIG. 2A) Structure of AR deletion mutants with numbered exons (FIG. 2B) Effect of D2 and T6 on basal (AI) and AD transcription. PC-3 cells were transiently transfected with ARE-luciferase along with plasmids expressing ARwt (FIG. 2B), ARv7 (FIG. 2C) or ARΔ1 (FIG. 2D). Cells were maintained for 48 h either without (EtOH) or with (1 nM DHT) and in the presence of 100 nM of peptidomimetic or volume equivalent of vehicle (DMSO) control. Luciferase assay results are shown. Data is normalized to the basal level of expression with AR wt in PC3 cells.
(§2) Since the WxxLF motif is also present in the truncated forms of the androgen receptor, the inventors then evaluated the ability of the peptidomimetics to block ARv7-driven transcription from a minimal ARE luciferase reporter. […] These findings were confirmed with a synthetic AR with point mutations in the WxxLF motif (data not shown).

ARwt = target: T2, ARwt (Homo sapiens, UniProt P10275); assay: ARE-luciferase reporter in PC-3 cells expressing ARwt; details: 1 nM DHT, 100 nM peptidomimetic, 48 h
T2 construct: expressed in transfected cells; host or cells: PC-3 cells (A3); M12 cells (A8)
T2 sequence (P10275 1-920): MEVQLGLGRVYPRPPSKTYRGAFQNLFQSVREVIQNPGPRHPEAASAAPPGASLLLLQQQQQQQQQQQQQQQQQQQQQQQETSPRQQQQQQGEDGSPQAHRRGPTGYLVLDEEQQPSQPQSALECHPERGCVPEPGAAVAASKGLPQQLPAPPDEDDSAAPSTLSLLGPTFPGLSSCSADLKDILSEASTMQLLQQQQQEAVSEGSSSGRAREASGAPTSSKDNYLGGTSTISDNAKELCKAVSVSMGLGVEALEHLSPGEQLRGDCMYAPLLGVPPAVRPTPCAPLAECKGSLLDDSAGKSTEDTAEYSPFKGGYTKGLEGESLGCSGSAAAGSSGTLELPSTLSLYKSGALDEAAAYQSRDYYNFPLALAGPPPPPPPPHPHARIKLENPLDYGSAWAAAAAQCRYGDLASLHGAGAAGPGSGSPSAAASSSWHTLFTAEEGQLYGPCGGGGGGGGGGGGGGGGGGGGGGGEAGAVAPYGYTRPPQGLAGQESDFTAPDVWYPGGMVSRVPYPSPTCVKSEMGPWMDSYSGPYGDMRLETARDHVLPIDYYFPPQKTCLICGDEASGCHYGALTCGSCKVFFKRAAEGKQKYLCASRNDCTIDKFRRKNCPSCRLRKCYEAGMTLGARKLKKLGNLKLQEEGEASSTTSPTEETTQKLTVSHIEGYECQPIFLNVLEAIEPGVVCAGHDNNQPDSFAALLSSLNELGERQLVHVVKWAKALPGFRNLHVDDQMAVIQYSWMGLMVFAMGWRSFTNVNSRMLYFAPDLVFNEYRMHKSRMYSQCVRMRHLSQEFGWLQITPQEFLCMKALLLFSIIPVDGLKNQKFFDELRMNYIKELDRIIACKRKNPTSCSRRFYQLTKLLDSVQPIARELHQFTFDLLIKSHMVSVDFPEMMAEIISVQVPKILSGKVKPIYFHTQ
Experimental: as §1, §2

ARv7 = target: T3, ARv7 (Homo sapiens, UniProt P10275); assay: ARE-luciferase reporter in PC-3 cells expressing ARv7; parameters: expressed in transfected cells; host or cells: PC-3 cells (A4); M12 cells (A9); details: 100 nM peptidomimetic, 48 h
T3 sequence (P10275 1-644 isoform P10275-3): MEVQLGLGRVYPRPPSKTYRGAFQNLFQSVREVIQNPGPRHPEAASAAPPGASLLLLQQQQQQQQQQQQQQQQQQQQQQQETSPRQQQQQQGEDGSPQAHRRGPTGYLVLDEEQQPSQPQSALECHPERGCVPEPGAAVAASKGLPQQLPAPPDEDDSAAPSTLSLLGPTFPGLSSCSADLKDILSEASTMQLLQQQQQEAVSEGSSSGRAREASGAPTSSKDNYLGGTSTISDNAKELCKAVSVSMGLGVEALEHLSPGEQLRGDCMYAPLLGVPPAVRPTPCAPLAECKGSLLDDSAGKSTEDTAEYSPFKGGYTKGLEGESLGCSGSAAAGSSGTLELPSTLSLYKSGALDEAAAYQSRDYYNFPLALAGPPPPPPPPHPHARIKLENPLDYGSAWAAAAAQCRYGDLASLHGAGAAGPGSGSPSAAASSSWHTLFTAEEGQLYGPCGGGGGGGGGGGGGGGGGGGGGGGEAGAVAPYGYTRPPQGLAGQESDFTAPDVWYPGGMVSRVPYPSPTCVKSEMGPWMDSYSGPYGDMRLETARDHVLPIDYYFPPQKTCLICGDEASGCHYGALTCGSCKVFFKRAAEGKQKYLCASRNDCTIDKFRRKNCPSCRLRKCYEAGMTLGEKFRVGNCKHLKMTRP
Experimental: as §1
FIGS. 3A-B. Effect of T6 on basal transcription driven by splice variants. PC-3 cells were transiently transfected with ARE-luciferase along with plasmids expressing ARv7 (FIG. 3A) or AR567 (FIG. 3B). Cells were maintained for 48 h either without (EtOH) or with (1 nM DHT) and in the presence of 100 nM of peptidomimetic or volume equivalent of vehicle (DMSO) control. Luciferase assay results are shown. Data is normalized to the basal level of expression with AR wt in PC3 cells.
Since the WxxLF motif is also present in the truncated forms of the androgen receptor, the inventors then evaluated the ability of the peptidomimetics to block ARv7-driven transcription from a minimal ARE luciferase reporter. […]

ARΔ1-mediated transcription (ARΔ1): not able to block | Ligand dependent transcription mediated by ARwt (ARwt): able to suppress | ARv7-mediated transcription (ARv7): able to block; also recorded: decreases
SMILES: CC(C)COc1cc(C(N)=O)ccc1NC(=O)c1ccc(NC(=O)c2ccc([N+](=O)[O-])c(OCCc3ccc4ccccc4c3)c2)c(OCC(C)C)c1 [T6]
